Each structure is given as a SMILES string.

Common to all, as to type: cell-based
Test [1] addresses Sodium-dependent noradrenaline transporter (Homo sapiens, UniProt P23975). Put plainly: Inhibition of […] reuptake in human NET expressed in HEK293 cells by microbeta liquid scintillation counting method.
Test [2] addresses Sodium-dependent serotonin transporter (Homo sapiens, UniProt P31645). Put plainly: Inhibition of [3H]-5-hydroxytryptamine reuptake in human SERT expressed in HEK293 cells by microbeta liquid scintillation counting method.
Test [3] deals with Sodium-dependent dopamine transporter (Homo sapiens, UniProt Q01959). Put plainly: Inhibition of […] reuptake in human DAT expressed in HEK293 cells by microbeta liquid scintillation counting method.
Sequence of Sodium-dependent dopamine transporter (Q01959 whole entry): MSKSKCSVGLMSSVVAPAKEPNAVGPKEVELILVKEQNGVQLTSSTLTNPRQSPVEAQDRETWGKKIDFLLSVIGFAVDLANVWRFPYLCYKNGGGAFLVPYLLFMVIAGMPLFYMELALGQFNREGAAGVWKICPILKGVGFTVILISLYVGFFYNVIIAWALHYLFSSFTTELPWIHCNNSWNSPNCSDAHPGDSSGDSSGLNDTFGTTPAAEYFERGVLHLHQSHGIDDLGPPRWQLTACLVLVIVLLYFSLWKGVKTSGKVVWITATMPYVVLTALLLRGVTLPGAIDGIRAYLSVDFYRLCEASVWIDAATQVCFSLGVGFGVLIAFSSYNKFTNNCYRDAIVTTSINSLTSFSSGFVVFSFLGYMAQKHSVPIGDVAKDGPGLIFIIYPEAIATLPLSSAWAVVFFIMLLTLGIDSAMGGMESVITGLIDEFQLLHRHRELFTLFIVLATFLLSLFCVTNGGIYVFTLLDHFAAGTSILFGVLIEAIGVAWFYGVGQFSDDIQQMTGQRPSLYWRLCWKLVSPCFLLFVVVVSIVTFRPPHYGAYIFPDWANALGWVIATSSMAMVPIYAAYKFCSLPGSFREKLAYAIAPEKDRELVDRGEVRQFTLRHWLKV

Sequence of Sodium-dependent noradrenaline transporter (P23975 whole entry): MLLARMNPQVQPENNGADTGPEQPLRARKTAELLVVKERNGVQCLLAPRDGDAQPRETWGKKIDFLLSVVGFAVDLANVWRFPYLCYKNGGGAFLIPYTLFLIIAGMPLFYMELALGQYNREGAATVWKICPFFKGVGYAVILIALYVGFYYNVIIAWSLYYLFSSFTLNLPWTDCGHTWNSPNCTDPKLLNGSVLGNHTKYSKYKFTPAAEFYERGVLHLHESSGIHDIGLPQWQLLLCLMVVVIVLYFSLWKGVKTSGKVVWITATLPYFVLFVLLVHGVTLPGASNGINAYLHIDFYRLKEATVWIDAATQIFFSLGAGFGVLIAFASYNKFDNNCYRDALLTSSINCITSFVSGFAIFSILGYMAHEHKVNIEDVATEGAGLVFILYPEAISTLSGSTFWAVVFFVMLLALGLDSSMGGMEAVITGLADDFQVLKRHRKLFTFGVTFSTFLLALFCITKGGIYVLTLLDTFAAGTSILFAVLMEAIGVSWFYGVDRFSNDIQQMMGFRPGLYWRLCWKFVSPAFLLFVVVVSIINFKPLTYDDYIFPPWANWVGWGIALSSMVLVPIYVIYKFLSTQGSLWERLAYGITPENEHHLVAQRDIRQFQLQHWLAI
Sequence of Sodium-dependent serotonin transporter (P31645 whole entry): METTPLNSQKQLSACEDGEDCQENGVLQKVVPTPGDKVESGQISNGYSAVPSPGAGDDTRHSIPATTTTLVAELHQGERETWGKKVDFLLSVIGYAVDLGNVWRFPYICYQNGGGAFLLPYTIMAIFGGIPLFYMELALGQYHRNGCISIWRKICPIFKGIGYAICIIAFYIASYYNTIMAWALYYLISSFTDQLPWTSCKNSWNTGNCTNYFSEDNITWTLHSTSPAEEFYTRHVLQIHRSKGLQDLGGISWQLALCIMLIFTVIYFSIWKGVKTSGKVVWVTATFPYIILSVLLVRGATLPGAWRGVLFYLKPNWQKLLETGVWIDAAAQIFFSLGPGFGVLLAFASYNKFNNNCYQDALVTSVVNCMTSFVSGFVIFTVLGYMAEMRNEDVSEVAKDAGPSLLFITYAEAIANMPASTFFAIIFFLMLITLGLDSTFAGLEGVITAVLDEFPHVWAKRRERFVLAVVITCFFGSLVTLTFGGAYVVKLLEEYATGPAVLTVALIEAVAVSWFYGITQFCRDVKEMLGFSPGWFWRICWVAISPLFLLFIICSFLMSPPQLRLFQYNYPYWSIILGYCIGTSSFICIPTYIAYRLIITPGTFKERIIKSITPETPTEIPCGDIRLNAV

The IC50 is the midpoint of a concentration-inhibition curve. Low values mean inhibition by little substance, high ones a need for much substance. In the case of `Fc1ccc(C(OCCN2CCN(c3ccccc3)CC2)c2ccc(F)cc2)cc1`, the IC50 in test [1] was 5330 nM; in test [2], 1910 nM; in test [3], 10000 nM.

On to `c1ccc(CN2CCN(CCCCn3nnnc3C(c3ccccc3)c3ccccc3)CC2)cc1`, for which the IC50 in test [1] amounted to 323 nM; in test [2], 1500 nM; in test [3] it was 317 nM.

Consider `O=C(NCCN1CCC(Cc2ccccc2)CC1)C(c1ccccc1)c1ccccc1`, for which the IC50 was 1680 nM in test [1], above 10000 nM in test [2] and 190 nM in test [3].

For `Fc1ccc(C(OCCN2CCN(c3ccccn3)CC2)c2ccc(F)cc2)cc1`, the IC50 in test [1] was 603 nM; in test [2], 579 nM; in test [3], 990 nM.

For the compound `c1ccc(CCCN2CCN(CCn3nnnc3C(c3ccccc3)c3ccccc3)CC2)cc1`, the IC50 turned out to be 1470 nM in test [1], 3860 nM in test [2] and 692 nM in test [3].

For `Fc1ccc(C(OCCN2CCN(c3ccc(Cl)cc3Cl)CC2)c2ccc(F)cc2)cc1`, the IC50 in test [1] was determined as 3750 nM; in test [2], 3910 nM; in test [3] it was 10000 nM.

As to `c1ccc(CC2CCN(CCn3nnnc3C(c3ccccc3)c3ccccc3)CC2)cc1`, the IC50 worked out at 1710 nM in test [1], 7700 nM in test [2] and 310 nM in test [3].

Consider `O=C(NCCCN1CCC(Cc2ccccc2)CC1)C(c1ccc(Cl)cc1)c1ccc(Cl)cc1`, for which the IC50 was determined as 2020 nM in test [1], 7670 nM in test [2] and 1350 nM in test [3].

For the compound `c1ccc(CN2CCN(CCCn3nnnc3C(c3ccccc3)c3ccccc3)CC2)cc1`, the values for the IC50 in test [1], in test [2] and in test [3] were 521 nM, 5050 nM and 292 nM, respectively.

Regarding `c1ccc(CCCN2CCN(CCCn3nnnc3C(c3ccccc3)c3ccccc3)CC2)cc1`, the IC50 in test [1] was found to be 569 nM; in test [2] it was 8000 nM; in test [3], 1640 nM.

Regarding `c1ccc(CC2CCN(CCCn3nnnc3C(c3ccccc3)c3ccccc3)CC2)cc1`, the IC50 in test [1] was 519 nM; in test [2], above 10000 nM; in test [3], 94 nM.

Regarding `Fc1ccc(C(OCCN2CCN(c3ccccc3Cl)CC2)c2ccc(F)cc2)cc1`, the IC50 is 1260 nM in test [1], above 10000 nM in test [2] and 5600 nM in test [3].

As to `c1ccc(CN2CCN(CCn3nnnc3C(c3ccccc3)c3ccccc3)CC2)cc1`, the IC50 in test [1] was 4220 nM; in test [2], above 10000 nM; in test [3], 2290 nM.

Consider `Fc1ccc(C(OCCN2CCN(c3cccc(Cl)c3)CC2)c2ccc(F)cc2)cc1`, for which the IC50 in test [1] is 1310 nM; in test [2] it was 4960 nM; in test [3], 2750 nM.

Consider `c1ccc(CCN2CCN(CCCCn3nnnc3C(c3ccccc3)c3ccccc3)CC2)cc1`, for which the IC50 came to 329 nM in test [1], 8000 nM in test [2] and 608 nM in test [3].

For `c1ccc(CCN2CCN(CCn3nnnc3C(c3ccccc3)c3ccccc3)CC2)cc1`, the IC50 in test [1] was found to be 2830 nM; in test [2], 4830 nM; in test [3] it was 680 nM.

As to `C(=C\c1ccccc1)/CN1CCN(CCn2nnnc2C(c2ccccc2)c2ccccc2)CC1`, the IC50 in test [1] is 1760 nM; in test [2] it was above 10000 nM; in test [3], 940 nM.

Take `O=C(NCCN1CCC(Cc2ccccc2)CC1)C(c1ccc(Cl)cc1)c1ccc(Cl)cc1`: the results for the IC50 in test [1], in test [2] and in test [3] were 8030 nM, above 10000 nM and 630 nM, respectively.

Take `Fc1ccc(C(OCCN2CCN(c3ncccn3)CC2)c2ccc(F)cc2)cc1`: the IC50 in test [1] stood at 1620 nM; in test [2] it was 1410 nM; in test [3] it was 1700 nM.

Take `Fc1ccc(C(OCCN2CCN(c3cccc(Cl)c3Cl)CC2)c2ccc(F)cc2)cc1`: the IC50 in test [1] amounted to 3000 nM; in test [2], 5000 nM; in test [3], 3000 nM.

Turning to `C(=C\c1ccccc1)/CN1CCN(CCCn2nnnc2C(c2ccccc2)c2ccccc2)CC1`, the values for the IC50 in test [1], in test [2] and in test [3] were 1330 nM, 7500 nM and 2230 nM, respectively.

As for `c1ccc(CC2CCN(CCCCn3nnnc3C(c3ccccc3)c3ccccc3)CC2)cc1`, the IC50 in test [1] is 1530 nM; in test [2], 550 nM; in test [3] it was 590 nM.

Consider `O=C(NCCCN1CCC(Cc2ccccc2)CC1)C(c1ccccc1)c1ccccc1`, for which the IC50 in test [1] is 2210 nM; in test [2] it was above 10000 nM; in test [3], 1070 nM.

Consider `c1ccc(CCN2CCN(CCCn3nnnc3C(c3ccccc3)c3ccccc3)CC2)cc1`, for which the IC50 is 400 nM in test [1], 1120 nM in test [2] and 1110 nM in test [3].

Take `Fc1ccc(C(OCCN2CCN(c3ccc(Cl)c(Cl)c3)CC2)c2ccc(F)cc2)cc1`: the IC50 in test [1] amounted to 1320 nM; in test [2], 5220 nM; in test [3] it was 4100 nM.

As to `Fc1ccc(C(OCCN2CCN(c3ccc(Cl)cc3)CC2)c2ccc(F)cc2)cc1`, the figures for the IC50 in test [1], in test [2] and in test [3] were 1590 nM, 6910 nM and 1390 nM, respectively.

In the case of `Fc1ccc(C(OCCN2CCC(Cc3ccccc3)CC2)c2ccc(F)cc2)cc1`, the IC50 in test [1] is 5860 nM; in test [2], 1670 nM; in test [3], 6820 nM.

With `C(=C\c1ccccc1)/CN1CCN(CCCCn2nnnc2C(c2ccccc2)c2ccccc2)CC1`, the values for the IC50 in test [1], in test [2] and in test [3] were 318 nM, 6290 nM and 3640 nM, respectively.

These data come from ChEMBL document CHEMBL4004887, “Design, synthesis and in vitro activity of 1,4-disubstituted piperazines and piperidines as triple reuptake inhibitors” (Bioorg Med Chem, 2017).
